{"source": "patent US20080145858A1", "about": "“DETECTION AND IDENTIFICATION OF TOXICANTS BY MEASUREMENT OF GENE […]” (priority 2003, published 2008)", "tested_on": "Xenopus laevis neurulation stage embryos (stage 15)", "experiment": "Xenopus cDNA microarray, differential gene expression after PMA treatment during neurulation (Group II)", "assay_type": "in vivo", "conditions": "for Ratio of Medians (Cy5/Cy3) Mean / Ratio of Medians (Cy5/Cy3) Second Spot / Cy3/Cy5 by Landmarks (0.25) / Cy3/Cy5 by all Data Points (0.469) / Normalized by Landmarks (0.25) / Normalized by all Data Points (0.469) / Ratio of Medians (Cy5/Cy3) First Spot: PMA, stage 15; for % increase of mRNA expression by Microarray analysis (NF by all data point): Stage 15", "description": "Specifically, the method and screen of the present invention function as follows. EST clones produced from Xenopus laevis unfertilized eggs were used in the present study with ˜1,200 EST clones from a 18,500 EST clone set selected for production of a Xenopus cDNA microarray. The Xenopus microarray was used to measure the effect of chemical treatment on Xenopus embryo gene regulation. The chemical treatment was a phorbol ester, PMA. Xenopus eggs were obtained from females induced for ovulation and fertilized in vitro. Control Xenopus laevis embryos were allowed to develop to stage 8 blastula or stage 15 neurula. Treated embryos were exposed to PMA during cleavage stage or during neurulation with end points of blastula (stage 8) or neurula (stage 15). Specifically, PMA 100 ng/ml was added to the incubation media during cleavage stages for evaluation in stage 8 embryo or PMA was added during neural induction for evaluation in stage 15 embryos. RNA extracted from the embryos was used to generate fluorescent cDNA probes for Xenopus microarray analyses to measure differential gene expression with and without the phorbol ester treatment. Analysis was performed using paired RNA samples to compare PMA-treated and untreated embryos: Group I measured the effects of PMA-treatment during the cleavage stage in stage 8 embryos and Group II measured the effects of PMA-treatment during neurulation in stage 15 embryos. Group III measured the change in gene expression between stage 8 and stage 15 embryos.\ncDNA fragments were obtained by PCR replication of Xenopus laevis unfertilized egg cDNA inserts, purified, quantitated and loaded onto glass chips by robotics. In addition to the selected ˜1,200 genes, 64 lambda Q gene, an internal control cDNA (Genomic Solutions, Inc., Ann Arbor, Mich.) was loaded on the chip. The insert DNA from ˜1,200 clones were PCR amplified using forward and reverse primers (GF.200 primers, Research Genetics, Huntsville, Ala.). A second PCR was carried out using 1 μl of the primary PCR (20 μl) for template. Excess dNTPs, polymerase and other PCR artifacts were removed from the secondary PCR reactions using Millipore Multiscreen plates (Millipore Corporation, Bedford, Mass.) using the standard protocol. The purity of the PCR products was assessed by electrophoresis and documented using an Alphalmager 1000 Digital Imaging System (Alpha Innotech Corporation, San Leandro, Calif.). The DNA obtained by PCR was quantitated using PicoGreen (Molecular Probes, Eugene, Oreg.). The DNA was denatured and arrayed onto amino-silane coated microscope slides (CMT-GAPS coated slides, Corning, Corning, N.Y.) using a Flexys robotic workstation (Genomic Solutions Inc.). The ˜1,200 PCR products were arrayed in duplicate on each slide and cross-linked. Each gene chip contained duplicate cDNA samples.\nTotal RNA was prepared from embryos treated in three separate dishes per treatment group that were pooled. Total RNA was isolated from the frog embryos (1,200 embryos for each probe production) using TRIzol extraction (Gibco BRL, Grand Island, N.Y.) and Qiagen RNeasy kits (Qiagen, Valencia, Calif.). The ethanol precipitated RNA was resuspended in RNase-free water, quantitated with RiboGreen (Molecular Probes, Eugene, Oreg.). Total RNA was further purified using oligoTex mRNA maxi kit (Qiagen Co.) with the bound mRNA eluted with minimum volume of elution buffer and precipitated with ethanol. The recovery rate of mRNA by the ethanol precipitation method was ˜70%. Cy3- or Cy5-tagged probes were produced from an mRNA mixture (20 μl) of Xenopus mRNA (5 μg) and lambda Q gene mRNA (3.5 ng) reverse-transcribed with oligo(dT)18-22 primer and dNTPs and the reverse-transcribed cDNA was cross-linked with Cy3 or Cy5 as described in Clontech Atlas™ Glass Fluorescent Labeling kit manual (www.clontech.com). After hydrolysis of the RNA and purification of the probe (Centricon 50, Millipore, Bedford, Mass.), the cDNA in TE buffer was quantitated by absorbance at 260 nm. […]", "note": "Marks after values point to notes of the source that are not given here."}
{"smiles": "CCCCCCCCCCCCCC(=O)O[C@@H]1[C@@H](C)[C@@]2(O)[C@@H](C=C(CO)C[C@]3(O)C(=O)C(C)=C[C@@H]23)[C@@H]2C(C)(C)[C@]12OC(C)=O", "note": "[PMA, phorbol 12-myristate 12-acetate]", "values": [{"measurement": "Ratio of Medians (Cy5/Cy3) Mean", "setting": "PBX0139G06 mRNA", "value": "1.06 ± 0.00 ^a"}, {"measurement": "Ratio of Medians (Cy5/Cy3) Second Spot", "setting": "PBX0139G06 mRNA", "value": 1.06}, {"measurement": "Cy3/Cy5 by Landmarks (0.25)", "setting": "PBX0140A10 mRNA", "value": 4.20}, {"measurement": "Cy3/Cy5 by all Data Points (0.469)", "setting": "PBX0140A10 mRNA", "value": 2.24}, {"measurement": "Normalized by Landmarks (0.25)", "setting": "PBX0140A10 mRNA", "value": 0.238}, {"measurement": "Normalized by all Data Points (0.469)", "setting": "PBX0140A10 mRNA", "value": 0.446}, {"measurement": "Ratio of Medians (Cy5/Cy3) First Spot", "setting": "PBX0140A10 mRNA", "value": 0.89}, {"measurement": "Ratio of Medians (Cy5/Cy3) Mean", "setting": "PBX0140A10 mRNA", "value": "0.95 ± 0.06 ^a"}, {"measurement": "Ratio of Medians (Cy5/Cy3) Second Spot", "setting": "PBX0140A10 mRNA", "value": 1.00}, {"measurement": "Cy3/Cy5 by Landmarks (0.25)", "setting": "PBX0141B10 mRNA", "value": 3.92}, {"measurement": "Cy3/Cy5 by all Data Points (0.469)", "setting": "PBX0141B10 mRNA", "value": 2.09}, {"measurement": "Normalized by Landmarks (0.25)", "setting": "PBX0141B10 mRNA", "value": 0.255}, {"measurement": "Normalized by all Data Points (0.469)", "setting": "PBX0141B10 mRNA", "value": 0.478}, {"measurement": "Ratio of Medians (Cy5/Cy3) First Spot", "setting": "PBX0141B10 mRNA", "value": 0.92}, {"measurement": "Ratio of Medians (Cy5/Cy3) Mean", "setting": "PBX0141B10 mRNA", "value": "1.02 ± 0.10 ^a"}, {"measurement": "Ratio of Medians (Cy5/Cy3) Second Spot", "setting": "PBX0141B10 mRNA", "value": 1.12}, {"measurement": "Cy3/Cy5 by Landmarks (0.25)", "setting": "PBX0141H05 mRNA", "value": 10.8}, {"measurement": "Cy3/Cy5 by all Data Points (0.469)", "setting": "PBX0141H05 mRNA", "value": 5.76}, {"measurement": "Normalized by Landmarks (0.25)", "setting": "PBX0141H05 mRNA", "value": 0.093}, {"measurement": "Normalized by all Data Points (0.469)", "setting": "PBX0141H05 mRNA", "value": 0.174}, {"measurement": "Ratio of Medians (Cy5/Cy3) First Spot", "setting": "PBX0141H05 mRNA", "value": 0.73}, {"measurement": "Ratio of Medians (Cy5/Cy3) Mean", "setting": "PBX0141H05 mRNA", "value": "0.37 ± 0.36 ^a"}, {"measurement": "Ratio of Medians (Cy5/Cy3) Second Spot", "setting": "PBX0141H05 mRNA", "value": 0.015}, {"measurement": "Normalized by Landmarks (0.25)", "setting": "PBX 0141H12 mRNA", "value": 1.40}, {"measurement": "Normalized by all Data Points (0.469)", "setting": "PBX 0141H12 mRNA", "value": 2.63}, {"measurement": "Ratio of Medians (Cy5/Cy3) First Spot", "setting": "PBX 0141H12 mRNA", "value": 7.46}, {"measurement": "Ratio of Medians (Cy5/Cy3) Mean", "setting": "PBX 0141H12 mRNA", "value": "5.61 ± 1.85 ^a"}, {"measurement": "Ratio of Medians (Cy5/Cy3) Second Spot", "setting": "PBX 0141H12 mRNA", "value": 3.75}, {"measurement": "Normalized by Landmarks (0.25)", "setting": "PBX 0143E06 mRNA", "value": 1.60}, {"measurement": "Normalized by all Data Points (0.469)", "setting": "PBX 0143E06 mRNA", "value": 3.01}, {"measurement": "Ratio of Medians (Cy5/Cy3) First Spot", "setting": "PBX 0143E06 mRNA", "value": 6.04}, {"measurement": "Ratio of Medians (Cy5/Cy3) Mean", "setting": "PBX 0143E06 mRNA", "value": "6.41 ± 0.3 ^a"}, {"measurement": "Ratio of Medians (Cy5/Cy3) Second Spot", "setting": "PBX 0143E06 mRNA", "value": 6.78}, {"measurement": "Normalized by Landmarks (0.25)", "setting": "PBX 0143E11 mRNA", "value": 1.41}, {"measurement": "Normalized by all Data Points (0.469)", "setting": "PBX 0143E11 mRNA", "value": 2.64}, {"measurement": "Ratio of Medians (Cy5/Cy3) First Spot", "setting": "PBX 0143E11 mRNA", "value": 4.62}, {"measurement": "Ratio of Medians (Cy5/Cy3) Mean", "setting": "PBX 0143E11 mRNA", "value": "5.64 ± 1.01 ^a"}, {"measurement": "Ratio of Medians (Cy5/Cy3) Second Spot", "setting": "PBX 0143E11 mRNA", "value": 6.65}, {"measurement": "Cy3/Cy5 by Landmarks (0.25)", "setting": "PBX0144A09 mRNA", "value": 4.00}, {"measurement": "Cy3/Cy5 by all Data Points (0.469)", "setting": "PBX0144A09 mRNA", "value": 2.13}, {"measurement": "Normalized by Landmarks (0.25)", "setting": "PBX0144A09 mRNA", "value": 0.250}, {"measurement": "Normalized by all Data Points (0.469)", "setting": "PBX0144A09 mRNA", "value": 0.469}, {"measurement": "Ratio of Medians (Cy5/Cy3) First Spot", "setting": "PBX0144A09 mRNA", "value": 0.83}, {"measurement": "Ratio of Medians (Cy5/Cy3) Mean", "setting": "PBX0144A09 mRNA", "value": "1.00 ± 0.17 ^a"}, {"measurement": "Ratio of Medians (Cy5/Cy3) Second Spot", "setting": "PBX0144A09 mRNA", "value": 1.16}, {"measurement": "Cy3/Cy5 by Landmarks (0.25)", "setting": "PBX0145D04 mRNA", "value": 4.35}, {"measurement": "Cy3/Cy5 by all Data Points (0.469)", "setting": "PBX0145D04 mRNA", "value": 2.32}, {"measurement": "Normalized by Landmarks (0.25)", "setting": "PBX0145D04 mRNA", "value": 0.230}, {"measurement": "Normalized by all Data Points (0.469)", "setting": "PBX0145D04 mRNA", "value": 0.431}, {"measurement": "Ratio of Medians (Cy5/Cy3) First Spot", "setting": "PBX0145D04 mRNA", "value": 0.9}, {"measurement": "Ratio of Medians (Cy5/Cy3) Mean", "setting": "PBX0145D04 mRNA", "value": "0.92 ± 0.02 ^a"}, {"measurement": "Ratio of Medians (Cy5/Cy3) Second Spot", "setting": "PBX0145D04 mRNA", "value": 0.95}, {"measurement": "Cy3/Cy5 by Landmarks (0.25)", "setting": "PBX0145D06 mRNA", "value": 4.03}, {"measurement": "Cy3/Cy5 by all Data Points (0.469)", "setting": "PBX0145D06 mRNA", "value": 2.15}, {"measurement": "Normalized by Landmarks (0.25)", "setting": "PBX0145D06 mRNA", "value": 0.248}, {"measurement": "Normalized by all Data Points (0.469)", "setting": "PBX0145D06 mRNA", "value": 0.464}, {"measurement": "Ratio of Medians (Cy5/Cy3) First Spot", "setting": "PBX0145D06 mRNA", "value": 0.98}, {"measurement": "Ratio of Medians (Cy5/Cy3) Mean", "setting": "PBX0145D06 mRNA", "value": "0.99 ± 0.01 ^a"}, {"measurement": "Ratio of Medians (Cy5/Cy3) Second Spot", "setting": "PBX0145D06 mRNA", "value": 1.00}, {"measurement": "% increase of mRNA expression by Microarray analysis (NF by all data point)", "setting": "gene PBX0135A08", "value": "no change"}, {"measurement": "% increase of mRNA expression by Microarray analysis (NF by all data point)", "setting": "gene PBX013409", "value": "no change"}]}
